Assay results: patent US10632100B2, “Application of obacunone in preparation of drug for preventing and treating lung damage and pulmonary fibrosis” (GUANGDONG PROVINCIAL HOSPITAL OF TRADITIONAL CHINESE …, priority 2016, dated 2020)

What was measured:
arginase = conditions: reciprocally increasing NO production; cited from earlier work
[1] = system: bleomycin-induced lung injury and pulmonary fibrosis; test: Inhibition of bleomycin-induced lung injury and pulmonary fibrosis in vivo (HE and Masson staining of lung tissue); parameters: species or system C57BL/6 mice; conditions: 10 mg/kg obacunone intraperitoneally 48 hours before each bleomycin injection, lung tissue 7 days after last bleomycin, vs bleomycin group
Experimental: (§1) Eighteen C57BL/6 mice, aged 8 weeks, each weighing 18 to 22 g, were provided by the Laboratory Animal Center of Guangzhou University of Chinese Medicine (Certificate No. 44007200023897).
Bleomycin was intraperitoneally injected into 8-week old B6 mice at a dose of 2 mg/mouse, once per week, three times in total. 48 hours before each injection with bleomycin, corn oil or 10 mg/kg obacunone was intraperitoneally injected into B6 mice in advance. 7 days after the last injection with bleomycin, lung tissue was isolated, fixed, sectioned, HE-stained (see Experiment 8 for details), and Masson-stained.

[2] = system: human colon cancer cells (SW480); conditions: cited from earlier work
[3] = system: cytokines IL-6, TGF-β, IL-17, IFN-γ and MCP-1; test: Bleomycin-induced expression of inflammatory factors in lung tissue (qPCR); format: in vivo, C57BL/6 mice; conditions: BLM+obacunone injection group vs BLM injection group, FIG. 2
Experimental: as §1
The mRNA levels of cytokines IL-6, TGF-β, IL-17, IFN-γ and MCP-1 were analyzed by qPCR. *P<0.05, **P<0.01 indicated significant differences between the BLM injection group and the normal group; ^# P<0.05, ^## P<0.01 indicated significant differences between the BLM injection group and the BLM+obacunone injection group.

[4] = system: human pancreatic cancer cells (Panc-28); conditions: by activating p53; cited from earlier work
liver and kidney of mice = test: Damage caused by obacunone to liver and kidney of mice (HE staining); format: in vivo, C57BL/6 mice; conditions: 10 mg/kg obacunone, twice a week, 6 times in total; tissues 7 days after last injection; FIG. 4
Experimental: as §1
8-week aged B6 mice were injected with corn oil or 10 mg/kg obacunone, twice a week, 6 times in total. 7 days after the last injection, liver and kidney tissues were isolated, fixed, sectioned, and HE-stained (FIG. 4), as described below.
HE (Hematoxylin-eosin) staining: the paraffin wax samples were continuously sectioned with the semi-automated rotary microtome, with a thickness of 3.5 μm; for staining, the sections were baked and dried for 20 min, rinsed with xylene (2 times×10 min), with anhydrous ethanol (2 times×2 min), with 95% ethanol for 1 min, with 80% ethanol for 1 min, with 70% ethanol for 1 min, washed with water for 1 min, then stained with hematoxylin for 8 min, […], washed with water (2 times×1 min), with 0.5% HCl-ethanol for 10 sec, washed with water for 10 min, stained with eosin for 2 min, washed with water for 1 min, with 80% ethanol for 5 sec, with 85% ethanol for 5 sec, with 90% ethanol for 5 sec, with 95% ethanol for 1 min, with anhydrous ethanol (2 times×2 min), with anhydrous ethanol for 3 min, and with xylene (2 times×2 min), and then the staining was completed and the sections were directly mounted with neutral gum.

[5] = system: α-smooth muscle actin (α-SMA); test: α-SMA expression in bleomycin-induced pulmonary fibrosis (immunohistochemistry staining); format: in vivo, C57BL/6 mice; conditions: after administration of obacunone, compared to the bleomycin group, FIG. 3
From the text: as §1
In pulmonary fibrosis TGF-β induced lung interstitial fibroblasts to transform into myofibroblasts, of which the marker is the expression of α-smooth muscle actin (α-SMA). Therefore, in this experiment the effect of obacunone on the expression of α-SMA in lung myofibroblasts was investigated to provide experimental support for the use of obacunone in treatment and prevention of pulmonary fibrosis.
Steps of immunohistochemistry staining are as follows:
1) placing and baking paraffin wax sections in an electrothermal thermostat oven at 60° C. for 30 min;
2) dewaxing the sections with xylene (8 min for each of I and II), hydrating them with decreasing concentrations of ethanol (8 min for each concentration), and washing with water;
3) performing antigen retrieval, and washing the sections with PBS (3 times×3 min);
4) adding Solution A (S-P kit) dropwise, blocking at room temperature for 10 min, and washing the sections with PBS (3 times×3 min);
5) adding Solution B (S-P kit) dropwise, blocking at room temperature for 10 min, and blotting extra liquid;
6) adding a primary antibody dropwise, placing the sections in a wet box overnight at 4° C., and washing the sections with PBS (3 times×3 min); […]

CC1(C)OC(=O)C=C[C@]2(C)[C@H]3CC[C@@]4(C)[C@H](c5ccoc5)OC(=O)[C@H]5O[C@]54[C@]3(C)C(=O)C[C@@H]12 [Obacunone]
activity of arginase (arginase): inhibiting activity of arginase
HE staining of lung tissue: pathological changes (alveolar shrinkage, inflammatory cell infiltration, wall thickening, bullae, interstitial proliferation) ([1]; FIG. 1A): significant improvement of the above pathological changes
Masson staining of lung tissue: precipitation of stroma (collagen, fibronectin) ([1]; FIG. 1B): significant improvement of the above pathological changes
apoptosis of SW480 cells ([2]; by activating cytochrome C): induced cell apoptosis
growth of tumor cells (SW480) ([2]; by activating p21 to arrest the cell cycle at phases G2/M and G1): suppressed growth of tumor cells
mRNA levels of cytokines IL-6, TGF-β, IL-17, IFN-γ and MCP-1 in lung tissue [3]: repaired these bleomycin-induced changes to a great extent
apoptosis of Panc-28 tumor cells [4]: induced apoptosis of tumor cells
effect on liver and kidney (HE-stained sections) (liver and kidney of mice): did not apparently affect the liver and kidney of mice
expression of α-SMA in lung tissue [5]: significantly reduced
